Laboratory results as given in US5098920A, “1H-substituted-1,2,4-triazole compounds and methods of use thereof for treatment of cardiovascular disorders” (G. D. Searle & Co., priority 1990, dated 1992).
Where two headings read alike, the source gives them in different places.

How the values were obtained:
[1] = molecular target: smooth muscle angiotensin II receptor; assay: Assay A: Angiotensin II Binding Activity (displacement of 125I-AII, rat uterine membrane preparation); details: 50% displacement of specifically bound 125I-AII; rat uterine membranes; 25° C., 60 min
Experimental: Assay A: Angiotensin II Binding Activity
Compounds of the invention were tested for ability to bind to the smooth muscle angiotensin II receptor using a rat uterine membrane preparation. […] Other chemicals were obtained from Sigma Chemical Co. This assay was carried out according to the method of Douglas et al [Endocrinology, 106, 120-124 (1980)]. Rat uterine membranes were prepared from fresh tissue. All procedures were carried out at 4° C. Uteri were stripped of fat and homogenized in phosphate-buffered saline at pH 7.4 containing 5 mM EDTA. The homogenate was centrifuged at 1500×g for 20 min., and the supernatant was recentrifuged at 100,000×g for 60 min. The pellet was resuspended in buffer consisting of 2 mM EDTA and 50 mM Tris-HCl (pH 7.5) to a final protein concentration of 4 mg/ml. […] The reaction was initiated by the addition of membrane protein and the mixture was incubated at 25° C. for 60 min. The incubation was terminated with ice-cold 50 mM Tris-HCl (pH 7.5) and the mixture was filtered to separate membrane-bound labelled peptide from the free ligand. The incubation tube and filter were washed with ice-cold buffer. Filters were assayed for radioactivity in a Micromedic gamma counter. Nonspecific binding was defined as binding in the presence of 10 μM of unlabelled AII. Specific binding was calculated as total binding minus nonspecific binding. […] Binding data were aralyzed by a nonlinear least-squares curve fitting program.

[2] = tested on: rabbit aortic rings; assay: Assay B: In Vitro Vascular Smooth Muscle-Response for AII (antagonist activity in rabbit aortic rings); format: cell-based, rabbit (male New Zealand white); details: Oryctolagus cuniculus, rabbit aorta rings, antagonist at 10^-5 M, read-out: PA2 (converted)
Experimental: Assay B: In Vitro Vascular Smooth Muscle-Response for AII The compounds of the invention were tested for antagonist activity in rabbit aortic rings. Male New Zealand white rabbits (2-2.5 kg) were sacrificed using an overdose of pentobarbital and exsanguinated via the carotid arteries. The thoracic aorta was removed, cleaned of adherent fat and connective tissue and then cut into 3-mm ring segments. The endothelium was removed from the rings by gently sliding a rolled-up piece of filter paper into the vessel lumen. The rings were then mounted in a water-jacketed tissue bath, maintained at 37° C., between moveable and fixed ends of a stainless steel wire with the moveable end attached to an FTO3 Grass transducer coupled to a Model 7D Grass Polygraph for recording isometric force responses. […] The preparations were equilibrated for one hour before approximately one gram of passive tension was placed on the rings. Angiotensin II concentration-response curves were then recorded (3×10^-10 to 1×10^-5 M). Each concentration of AII was allowed to elicit its maximal contraction, and then AII was washed out repeatedly for 30 minutes before rechallenging with a higher concentration of AII. Aorta rings were exposed to the test antagonist at 10^-5 M for 5 minutes before challenging with AII. Adjacent segments of the same aorta ring were used for all concentration-response curves in the presence or absence of the test antagonist. The effectiveness of the test compound was expressed in terms of pA2 values and were calculated according to H. O. Schild [Br. J. Pharmacol. Chemother., 2, 189-206 (1947)]. […] Each test antagonist was evaluated in aorta rings from two rabbits.

[3] = tested on: angiotensin II receptor; details: cited from earlier work; for angiotensin II antagonist activity: binding experiments, functional assays and in vivo tests, literature
[4] = tested on: AII pressor response; assay: Assay C: In Vivo Intraduodenal Pressor Assay Response for AII Antagonists; set-up: species or system rat (male Sprague-Dawley); details: rats; for Inhibition: percent inhibition of AII (30 ng/kg i.v.) pressor response; for Duration: time from peak percent inhibition to 50% of peak
Experimental: Assay C: In Vivo Intraduodenal Pressor Assay Response for AII Antagonists
Male Sprague-Dawley rats weighing 225-300 grams were anesthetized with Inactin (100 mg/kg, i.p.) and catheters were implanted into the trachea, femoral artery, femoral vein and duodenum. Arterial pressure was recorded from the femoral artery catheter on a Gould chart recorder (Gould, Cleveland, Ohio). The fe:moral vein catheter was used for injections of angiotensin II, mecamylamine and atropine. The tracheal cathete'r allows for airway patency, and the duodenal catheter was used for intraduodenal (i.d.) administration of test compounds. After surgery, the rats were allowed to equilibrate for 30 minutes. Mecamylamine (3 mg/kg, 0.3 ml/kg) and atropine (400 ug/kg, 0.3 ml/kg) were then given i.v. to produce ganglion blockade. These compounds were administered every 90 minutes throughout the test procedure. Angiotensin II was given in bolus does i.v. (30 ng/kg in saline with 0.5% bovine serum albumin, 0.1 ml/kg) every 10 minutes three times or until the increase in arterial pressure produced was within 3 mmHg for two consecutive AII injections. The last two AII injections were averaged and were taken as the control AII pressor response. Ten minutes after the final control AII injection, the test compound (dissolved in sodium bicarbonate) was administered i.d. at a dose of 30 or 100 mg/kg in a volume of 0.2 ml. Angiotensin II injections were then given 5, 10, 20, 30, 45, 60, 75, 90, and 120 minutes after administration of the test compound and response of arterial pressure was monitored. The response to AII was calculated as percent of the control response and then the percent inhibition is calculated as 100 minus the percent control response. Duration of action of a test compound was defined as the time from peak percent inhibition to 50% of peak. One compound at one dose was tested in each rat. Each test compound was tested in two rats and the values for the two rats were averaged.

[5] = only printed value, or first of two printed values

Compound | IC50 [1] [nM] | Kb [2, 5] [nM] | Kb ([2]; second of two values) [nM] | also measured
CCCCc1nc(Cl)c(CC(=O)O)n1Cc1ccccc1[N+](=O)[O-] [2-butyl-4-chloro-1-(2-nitrobenzyl)imidazole-5-acetic acid] | – | – | – | angiotensin II antagonist activity [3]: specific competitive angiotensin II antagonist activity
CCCCCc1nc(CCCCC)n(Cc2ccc(-c3ccccc3-c3nnn[nH]3)cc2)n1 [Example 13, 5-[4'-[(3,5-dipentyl-1H-1,2,4-triazol-1-yl)methyl][1,1'-biphenyl]-2-yl]-1H-tetrazole] | – | 2 | 1.41 | –
CCCCc1nc(CCCC)n(Cc2ccc(-c3ccccc3C(=O)NNS(=O)(=O)C(F)(F)F)cc2)n1 [Example 5, 4'-[(3,5-dibutyl-1H-1,2,4-triazol-1-yl)methyl][1,1'-biphenyl]-2-carboxylicacid, 2-[(trifluoromethyl)sulfonyl]hydrazide] | 200 | 63.1 | – | Inhibition ([4]; 100 mg/kg i.d.): 38%; Duration ([4]; 100 mg/kg i.d.): 20 to 30 min
CCCCc1nc(C(F)(F)CCC)nn1Cc1ccc(-c2ccccc2-c2nnn[nH]2)cc1 [Example 10, 5-[4'-[[5-butyl-3-(1,1-difluorobutyl)-1H-1,2,4-triazol-1-yl]methyl][1,1'-biphenyl]-2-yl]-1H-tetrazole] | 4.9 | 6.46 | 25.7 | Inhibition ([4]; 30 mg/kg i.d.): 100%; Duration ([4]; 30 mg/kg i.d.): 240 min
CCCCc1nc(Cl)nn1Cc1ccc(-c2ccccc2C(=O)O)cc1 [Example 6, 4'-[(5-butyl-3-chloro-1H-1,2,4-triazol-1-yl)methyl][1,1'-biphenyl]-2-carboxylic acid] | – | 204 | – | Inhibition ([4]; 100 mg/kg i.d.): 90%; Duration ([4]; 100 mg/kg i.d.): 120 min
CCCCc1nc(Cl)n(Cc2ccc(-c3ccccc3C(=O)O)cc2)n1 [Example 8, 4'-[(3-butyl-5-chloro-1H-1,2,4-triazol-1-yl)methyl][1,1'-biphenyl]-2-carboxylic acid] | 1700 | – | – | –
CCCCc1nc(Cl)nn1Cc1ccc(-c2ccccc2-c2nnn[nH]2)cc1 [Example 7] | 84 | 9.33 | – | –
CNCC(=O)N[C@@H](CCCN=C(N)N)C(=O)N[C@H](C(=O)N[C@@H](Cc1ccc(O)cc1)C(=O)N[C@H](C(=O)N[C@@H](Cc1cnc[nH]1)C(=O)N1CCC[C@H]1C(=O)N[C@@H](C)C(=O)O)C(C)C)C(C)C [Saralasin] | – | – | – | residual agonist activity ([3]; background statement): significant residual agonist activity
CCCCc1nc(CCCC)n(Cc2ccc(-c3ccccc3C(=O)O)cc2)n1 [Example 2, 4'-[(3,5-dibutyl-1H-1,2.4-triazol-1-yl)methyl][1,1'-biphenyl]-2-carboxylic acid] | – | 33.1 | – | Inhibition ([4]; 30 mg/kg i.d.): 98%
CCCCc1nc(Cl)c(CC(=O)O)n1Cc1ccccc1Cl [2-n-butyl-4-chloro-1-(2-chlorobenzyl)imidazole-5-acetic acid] | – | – | – | angiotensin II antagonist activity [3]: specific competitive angiotensin II antagonist activity

More lines, main results first:

IC50 [1] [nM] | Compound | Kb [2, 5] [nM] | Kb ([2]; second of two values) [nM] | also measured
16 | CCCCc1nc(CCC)n(Cc2ccc(-c3ccccc3-c3nnn[nH]3)cc2)n1 [Example 15, 5-[4'-[(3-butyl-5-propyl-1H-1,2,4-triazol-1-yl)methyl]-[1,1'-biphenyl]-2-yl]-1H-tetrazole] | 4.9 | 5.01 | –
6.4 | CCCCc1nc(CCC(C)C)n(Cc2ccc(-c3ccccc3-c3nnn[nH]3)cc2)n1 [Example 16, 5-[4'-[(3-butyl-5-isopentyl-1H-1,2,4-triazol-1-yl)methyl]-[1,1'-biphenyl]-2-yl]-1H-tetrazole] | 1.12 | 0.575 | –
6 | CCCc1nc(CCC)n(Cc2ccc(-c3ccccc3-c3nnn[nH]3)cc2)n1 [Example 12, 5-[4'-[(3,5-dipropyl-1H-1,2,4-triazol-1-yl)methyl][1,1'-biphenyl]-2-yl]-1H-tetrazole] | 2.19 | 2.57 | –
700 | CCCCc1nc(Cl)n(Cc2ccc(-c3ccccc3-c3nnn[nH]3)cc2)n1 [Example 9] | 40.7 | – | Inhibition ([4]; 30 mg/kg i.d.): 100%; Duration ([4]; 30 mg/kg i.d.): 230 min
160 | CCCCc1nc(C(F)(F)CCC)n(Cc2ccc(-c3ccccc3-c3nnn[nH]3)cc2)n1 [Example 11, 5-[4'-[[3-butyl-5-(1,1-difluorobutyl)-1H-1,2,4-triazol-1-yl]methyl][1,1'-biphenyl]-2-yl]-1H-tetrazole] | 355 | 170 | –
4 | CCCCc1nc(CCC(C)C)nn1Cc1ccc(-c2ccccc2-c2nnn[nH]2)cc1 [Example 17, 5-[4'-[(5-butyl-3-isopentyl-1H-1,2,4-triazol-1-yl]methyl)[1,1'-biphenyl]-2-yl]-1H-tetrazole] | 2.29 | 3.98 | –
5.4 | CCCCc1nc(CCCC)n(Cc2ccc(-c3ccccc3-c3nnn[nH]3)cc2)n1 [Example 3, 5-[4'-[(3,5-dibutyl-1H-1,2,4-triazol-1-yl)methyl][1,1'-biphenyl]2-yl]-1H-tetrazole] | 2 | – | Inhibition ([4]; 30 mg/kg i.d.): 100%; Duration ([4]; 30 mg/kg i.d.): ≥ 200 min
7.2 | CCCCc1nc(CCC)nn1Cc1ccc(-c2ccccc2-c2nnn[nH]2)cc1 [Example 14, 5-[4'-[(5-butyl-3-propyl-1H-1,2,4-triazol-1-yl)methyl]-[1,1'-biphenyl]-2-yl]-1H-tetrazole] | 1.45 | 1.95 | –
